US10562897B2, “Substituted 3,4-dihydro-2H-pyrido[1,2-a]pyrazine-1,6-diones as gamma secretase modulators” (Janssen Pharmaceutica NV, priority 2014, dated 2020)
Where two headings read alike, the source gives them in different places.

Key:
[1] = test system: Aβ42; assay: In vivo efficacy: brain level of soluble Aβ42, non-transgenic rodents, single oral dose 30 mg/kg, 4 h, MSD electrochemiluminescence, untreated control = 100; parameters: species or system mouse; settings: for response vs control in vivo at 30 mg/kg / response vs control in vivo at 10 mg/kg: Mus musculus, read-out: Aβ42 (% vs Ctrl) _Mean; for response vs control in vivo at 10 mg/kg: 10 mpk po; for Aβ42 (% vs Ctrl) _Mean: 30 mg/kg
Description: (§1) To determine whether acute administration of an Aβ42 lowering agent would reduce Aβ42 levels in vivo, non-transgenic rodents, e.g. mice or rats were used. Animals treated with the Aβ42 lowering agent were examined and compared to those untreated or treated with vehicle and brain levels of soluble Aβ42, Aβ40, Aβ38, and Aβ37 were quantitated by Meso Scale Discovery's (MSD) electrochemiluminescence detection technology. Treatment periods varied from hours (h) to days and were adjusted based on the results of the Aβ42 lowering once a time course of onset of effect could be established.
(§2) A typical protocol for measuring Aβ42 lowering in vivo is shown but it is only one of many variations that could be used to optimize the levels of detectable Aβ. For example, Aβ42 lowering compounds were formulated in 20% of Captisol® (a sulfobutyl ether of β-cyclodextrin) in water or 20% hydroxypropyl β cyclodextrin. The Aβ42 lowering agents were administered as a single oral dose or by any acceptable route of administration to overnight fasted animals. After 4 h, the animals were sacrificed and Aβ42 levels were analysed.
(§3) Blood was collected by decapitation and exsanguinations in EDTA-treated collection tubes. Blood was centrifuged at 1900 g for 10 minutes (min) at 4° C. and the plasma recovered and flash frozen for later analysis. The brain was removed from the cranium and hindbrain. The cerebellum was removed and the left and right hemisphere were separated. The left hemisphere was stored at −18° C. for quantitative analysis of test compound levels. The right hemisphere was rinsed with phosphate-buffered saline (PBS) buffer and immediately frozen on dry ice and stored at −80° C. until homogenization for biochemical assays.
(§4) Mouse brains from non-transgenic animals were resuspended in 8 volumes of 0.4% DEA (diethylamine)/50 mM NaCl containing protease inhibitors (Roche-11873580001 or 04693159001) per gram of tissue, e.g. for 0.158 g brain, add 1.264 ml of 0.4% DEA. All samples were homogenized in the FastPrep-24 system (MP Biomedicals) using lysing matrix D (MPBio #6913-100) at 6 m/s for 20 seconds. Homogenates were centrifuged at 20800×g for 5 min and supernatants collected. Supernatants were centrifuged at 221.300×g for 50 min. The resulting high speed supernatants were then transferred to fresh eppendorf tubes. Nine parts of supernatant were neutralized with 1 part 0.5 M Tris-HCl pH 6.8 and used to quantify Aβ.
(§5) To quantify the amount of Aβ42, Aβ40, Aβ38, and Aβ37 in the soluble fraction of the brain homogenates, simultaneous specific detection of Aβ42, Aβ40, Aβ38, and Aβ37 was performed using MSD's electro-chemiluminescence multiplex detection technology. In this assay purified monoclonal antibodies specific for Abeta37 (JRD/Aβ37/3), Abeta38 (J&JPRD/Aβ38/5), Abeta40 (JRF/cAβ40/28), and Abeta42 (JRF/cAβ42/26) were coated on MSD 4-plex plates. Briefly, the standards (a dilution of synthetic Aβ42, Aβ40, Aβ38, and Aβ37) were prepared in 1.5 ml Eppendorf tube in Ultraculture, with final concentrations ranging from 10000 to 0.3 pg/m. The samples and standards were co-incubated with Sulfo-tag labelled JRF/rAß/2 antibody to the N-terminus of Aβ as detector antibody. 50 μl of conjugate/sample or conjugate/standards mixtures were then added to the antibody-coated plate. The plate was allowed to incubate overnight at 4° C. in order to allow formation of the antibody-amyloid complex. Following this incubation and subsequent wash steps the assay was finished by adding read buffer according to the manufacturer's instructions (Meso Scale Discovery, Gaitherburg, Md.).
(§6) The SULFO-TAG emits light upon electrochemical stimulation initiated at the electrode. MSD Sector instrument SI6000 was used for signal read-out.
In this model a Aß42 lowering compared to untreated animals would be advantageous, in particular a Aß42 lowering with at least 10%, more in particular a Aß42 lowering with at least 20%. […]

[2] = test system: Aβ38; assay: In vivo efficacy: brain level of soluble Aβ38, non-transgenic rodents, single oral dose 30 mg/kg, 4 h, MSD electrochemiluminescence, untreated control = 100; parameters: species or system mouse; settings: for response vs control in vivo at 30 mg/kg / response vs control in vivo at 10 mg/kg: Mus musculus, read-out: Aβ38 (% vs Ctrl) _Mean; for response vs control in vivo at 10 mg/kg: 10 mpk po; for Aβ38 (% vs Ctrl) _Mean: 30 mg/kg
Description: To determine whether acute administration of an Aβ38 increasing agents would increase Aβ38 levels in vivo, non-transgenic rodents, e.g. mice or rats were used. Animals treated with the Aβ38 increasing agents were examined and compared to those untreated or treated with vehicle and brain levels of soluble Aβ42, Aβ40, Aβ38, and Aβ37 were quantitated by MSD electrochemiluminescence detection technology.
Treatment periods varied from hours (h) to days and were adjusted based on the results of the Aβ38 increase once a time course of onset of effect could be established.
as §2, with “measuring Aβ38 increase” for “measuring Aβ42 lowering”, “example, Aβ38 increasing agents” for “example, Aβ42 lowering compounds”, “The Aβ38 increasing” for “The Aβ42 lowering”, “and Aβ38” for “and Aβ42”
as §3, §4
as §5, with “[…].” for “pg/m.”
as §6
In this model a Aß38 increase compared to untreated animals would be advantageous, in particular a Aß38 increase with at least 10%, more in particular a Aß38 increase with at least 20%. […]

[3] = test system: Aβ40; assay: In vivo efficacy: brain level of soluble Aβ40, non-transgenic rodents, single oral dose 30 mg/kg, 4 h, MSD electrochemiluminescence, untreated control = 100; parameters: species or system mouse; settings: for response vs control in vivo at 30 mg/kg / response vs control in vivo at 10 mg/kg: Mus musculus, read-out: Aβ40 (% vs Ctrl) _Mean; for response vs control in vivo at 10 mg/kg: 10 mpk po
Description: as §1, §2, §3, §4, §5
The SULFO-TAG emits light upon electrochemical stimulation initiated at the electrode. MSD Sector instrument SI6000 was used for signal read-out. […]

Compound	response vs control in vivo at 30 mg/kg ([1]; po, dose 30 mg/kg oral dosing) [%]	response vs control in vivo at 30 mg/kg ([2]; po, dose 30 mg/kg oral dosing) [%]	melting point [°C]	response vs control in vivo at 30 mg/kg ([3]; po, dose 30 mg/kg oral dosing) [%]	response vs control in vivo at 30 mg/kg ([1]; sc, 30 mpk sc) [%]	response vs control in vivo at 30 mg/kg ([2]; sc, 30 mpk sc) [%]	response vs control in vivo at 30 mg/kg ([3]; sc, 30 mpk sc (footnote *)) [%]	other results
Cc1cn(-c2ccc3n(c2=O)C[C@@H](C)N(Cc2coc4cc(C(F)(F)F)ccc24)C3=O)cn1 [Compound 72]	64	130	215	88	–	–	–	–
Cc1cn(-c2ccc3n(c2=O)CCN(Cc2coc4ccc(C(F)(F)F)cc24)C3=O)cn1 [Compound 64]	–	–	211	–	108	155	132	–
Cc1cn(-c2ccc3n(c2=O)C[C@@H](C)N(Cc2coc4cc(F)c(C(F)(F)F)cc24)C3=O)cn1 [Compound 84]	–	–	222	–	25	237	21	–
Cc1cn(-c2ccc3n(c2=O)CC(C)N(C(C)c2coc4cc(F)c(C(F)(F)F)cc24)C3=O)cn1 (single isomer, unassigned) [Compound 89]	–	–	230	–	–	–	–	response vs control in vivo at 10 mg/kg ([1]; po): 58%; response vs control in vivo at 10 mg/kg ([2]; po): 132%; response vs control in vivo at 10 mg/kg ([3]; po): 67%
Cc1cn(-c2ccc3n(c2=O)C[C@@H](C)N(Cc2cc4cc(Br)ccc4o2)C3=O)cn1 [Compound 13]	77	117	159	101	–	–	–	–
Cc1cn(-c2ccc3n(c2=O)CCN(C(C)c2coc4cc(F)c(Cl)cc24)C3=O)cn1 (single isomer, unassigned) [Compound 61]	86	192	231	90	–	–	–	–
Cc1cn(-c2ccc3n(c2=O)C[C@@H](C)N(Cc2coc4c(Cl)cc(Cl)cc24)C3=O)cn1 [Compound 74]	–	–	202	–	–	–	–	response vs control in vivo at 10 mg/kg ([1]; po): 83%; response vs control in vivo at 10 mg/kg ([2]; po): 144%; response vs control in vivo at 10 mg/kg ([3]; po): 100%
Cc1cn(-c2ccc3n(c2=O)CC(C)N(C(C)c2cc(OC4CC4)cc(C(F)(F)F)c2)C3=O)cn1 (stereo not drawn) [Compound 48]	–	–	–	91	–	–	–	Aβ42 (% vs Ctrl) _Mean ([1]; dose 30 mg/kg oral dosing): 60 % vs Ctrl; Aβ38 (% vs Ctrl) _Mean ([2]; dose 30 mg/kg oral dosing): 161 % vs Ctrl
Cc1cn(-c2ccc3n(c2=O)C[C@@H](C)N(Cc2coc4cc(F)c(Cl)cc24)C3=O)cn1 [Compound 63]	–	–	–	–	58	135	62	–
Cc1cn(-c2ccc3n(c2=O)CC(C)N(C(C)c2cc(OC4CC4)cc(C(F)(F)F)c2)C3=O)cn1 (stereo not drawn) [Compound 49]	–	–	–	–	–	–	–	Aβ42 (% vs Ctrl) _Mean ([1]; dose 30 mg/kg oral dosing): 85 % vs Ctrl; Aβ38 (% vs Ctrl) _Mean ([2]; dose 30 mg/kg oral dosing): 123 % vs Ctrl; Aβ40 (% vs Ctrl) _Mean ([3]; dose 30 mg/kg oral dosing, 30 mg/kg): 101 % vs Ctrl
Cc1cn(-c2ccc3n(c2=O)C[C@@H](C)N(Cc2coc4cc(C(F)(F)F)c(F)cc24)C3=O)cn1 [Compound 85]	–	–	226	–	51	194	69	–
Cc1cn(-c2ccc3n(c2=O)C[C@@H](C)N(Cc2coc4ccc(C(F)(F)F)cc24)C3=O)cn1 [Compound 73]	–	–	187	–	97	110	114	–
Cc1cn(-c2ccc3n(c2=O)C[C@@H](C)N(Cc2coc4ccc(Cl)cc24)C3=O)cn1 [Compound 55]	93	142	–	113	–	–	–	–
Cc1cn(-c2ccc3n(c2=O)C[C@@H](C)N(Cc2cc(OC4CC4)cc(C(F)(F)F)c2)C3=O)cn1 [Compound 33]	57	132	–	79	–	–	–	–
Cc1cn(-c2ccc3n(c2=O)CC(C)N(Cc2csc4c2CC(C(F)(F)F)CC4)C3=O)cn1 (stereo not drawn) [Compound 35]	112	116	–	108	–	–	–	–
Cc1cn(-c2ccc3n(c2=O)CC(C)N(Cc2cc4c(s2)CCC(C(F)(F)F)C4)C3=O)cn1 (stereo not drawn) [Compound 34]	104	102	–	128	–	–	–	–
